Patent US4562204A, “Trans-Δ^2 -prostaglandin D derivatives, process for their preparation and compositions containing them” (Ono Pharmaceutical Co., Ltd., priority 1982, dated 1985)

Columns and labels:
[1] = system: cells originated from human mouth tumour (KB-cells); experiment: Inhibition of the proliferation of cells originated from human mouth tumour (KB-cells), Trypan Blue staining; format: cell-based; details: 96 h, 37° C., 4 days, relative to control (0.1% ethanol), read-out: Percent Inhibition of proliferation, KB-cells; for inhibition at 1 µg/mL: 1 μg/ml; for inhibition at 5 µg/mL: 5 μg/ml
Experimental: Test on the Inhibition of the Proliferation of Cells Originated from Human Mouth Tumour (KB-cells) Experimental method
The test on the inhibition of the proliferation of cells originated from human mouth tumour was conducted by a well known method. The cells originated from human mouth tumour (KB-cells) were added to an Eagle's MEM culture solution containing 10% bovine fetal serum, the number of cells in the culture solution was adjusted to 1×10^5 cells/ml, a solution in ethanol of the compound under test was added to give a concentration of 5 μg/ml or 1 μg/ml, and the mixture was subjected to stationary culture at 37° C. for 4 days. As a control, a culture solution containing 0.1% of ethanol was similarly cultured. The culture solutions were stained by the Trypan Blue staining method and the surviving cell number was measured to determine the degree of inhibition relative to the control.

[2] = system: human myelogenous leukemic cells (HL-60); experiment: Inhibition of the proliferation of human myelogenous leukemic cells (HL-60), Trypan Blue staining; format: cell-based; details: HL-60, 96 h, 37° C., 4 days, relative to control (0.1% ethanol), read-out: Percent Inhibition of proliferation, HL-60 cells; for inhibition at 1 µg/mL: 1 μg/ml; for inhibition at 5 µg/mL: 5 μg/ml
Experimental: Test on the Inhibition of the Proliferation of Human Myelogenous Leukemic Cells (HL-60) Experimental method
The test on the inhibition of the proliferation of human myelogenous leukemic cells was conducted by a well known method. The human myelogenous leukemic cells (HL-60) were added to an RPMI culture solution containing 10% bovine fetal serum, the number of cells in the culture solution was adjusted to 1×10^5 cells/ml, a solution in ethanol of the compound under test was added to give a concentration of 5 μg/ml or 1 μg/ml, and the mixture was subjected to stationary culture at 37° C. for 4 days. As a control, a culture solution containing 0.1% of ethanol was similarly cultured. The culture solutions were stained by the Trypan Blue staining method and the surviving cell number was measured to determine the degree of inhibition relative to the control.

Row | Structure (SMILES) | inhibition at 1 µg/mL [1] | inhibition at 5 µg/mL [1] | inhibition at 1 µg/mL [2] | inhibition at 5 µg/mL [2]
1 | CCCCC[C@H](O)/C=C/[C@H]1C(=O)C=C[C@@H]1C/C=C\C/C=C/C(=O)O [Trans-Δ^2-9-deoxy-Δ^9 -PGD2, (2E,5Z,9Z,13E)-(15S)-11-oxo-15-hydroxyprosta-2,5,9,13-tetraenoic acid] | 9.7% | 98.5% | 1.4% | 99%
2 | CCCCCC=CC=C1C(=O)C=C[C@@H]1C/C=C\C/C=C/C(=O)O [(2E,5Z,9Z,14EZ)-11-oxoprosta-2,5,9,12,14-pentaenoic acid] | 0% | 100% | 4.8% | 98.3%
3 | CCCCC[C@H](O)/C=C/[C@H]1C(=O)C[C@H](O)[C@@H]1C/C=C\C/C=C/C(=O)O [Trans-Δ^2 -PGD2, (2E,5Z,13E)-(9α,15S)-9,15-dihydroxy-11-oxoprosta-2,5,13-trienoic acid] | 2.1% | 17.9% | 0% | 19.4%
